Where “and” joins values, the source holds several entries; their conditions need not be identical. Identical values can stand only once.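 Assay format: 96-well plates, 48-hour exposure. GI50 marks 50% less growth. TGI is the concentration that stops growth completely.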
Assays:
Assay in all cases: NCI anticancer screen, dose series, 48 h
[1] = test system: SK-MEL-2 melanoma
[2] = test system: A549 NSCLC
[3] = test system: SNB-75 CNS
[4] = test system: SR leukemia
[5] = test system: HCT-15 colon
[6] = test system: COLO 205 colon
[7] = test system: A498 renal
[8] = test system: K-562 leukemia
[9] = test system: NCI/ADR-RES ovarian
[10] = test system: UACC-62 melanoma

| Structure (SMILES) | GI50 [1] | TGI [1] [µM] | GI50 [2] | TGI [2] | GI50 [3] | TGI [3] | GI50 [4] | TGI [4] | GI50 [5] | TGI [5] | GI50 [6] | TGI [6] [µM] | GI50 [7] | TGI [7] | GI50 [8] | TGI [8] | GI50 [9] | TGI [9] | GI50 [10] | TGI [10] |
| --- | --- | --- | --- | --- | --- | --- | --- | --- | --- | --- | --- | --- | --- | --- | --- | --- | --- | --- | --- | --- |
| CCOC(=O)C(=Cc1cccc(Cl)c1)C(=O)OCC | 2.1 µM | 4.24 | 11.4 µM | 24.6 µM | 2.12 µM | 7.8 µM | 1550 nM | > 100 µM | 1.96 µM | 5.27 µM | 2210 nM | 4.42 | 11900 nM | 24.2 µM | 3.18 µM | > 100 µM | 3.3 µM | 16.9 µM | 1650 nM | 3.58 µM |
| C[C@H]1Oc2cc(cnc2N)-c2c(nn(C)c2C#N)CN(C)C(=O)c2ccc(F)cc21 | 78 µM | > 100 | 25.4 µM | > 100 µM | 21.7 µM | > 100 µM | – | > 100 µM | 47 µM | > 100 µM | 5240 nM | 51.4 | 452 nM | > 30.6 µM | > 100 µM | > 100 µM | 65.5 µM | > 100 µM | 22400 nM | > 100 µM |
| O=C(c1ccc(F)c(F)c1Nc1ccc(I)cc1F)N1CC(O)([C@@H]2CCCCN2)C1 | < 0.013 µM and 0.0327 µM | < 0.0268 | 0.25 µM and 0.48 µM | 17 µM and > 10 µM | 2.85 µM and 0.574 µM | 16 µM and > 10 µM | 1640 nM and 3350 nM | 9.66 µM and > 10 µM | 1.22 µM and 1.92 µM | 16.8 µM and > 10 µM | < 10 nM and 2.38 nM | 4.06 | < 19.4 nM and 42.2 nM | 0.134 µM and 0.294 µM | 0.216 µM and 0.574 µM | 6.15 µM and > 10 µM | 6.56 µM and > 7.36 µM | 21.5 µM and > 10 µM | < 10 nM and 3.39 nM | < 0.0158 µM and 0.0384 µM |
| COc1ccc(-c2oc(=O)ccc2-c2cc(OC)c(OC)c(OC)c2)cc1F | 6.98 µM | > 100 | 9.91 µM | > 100 µM | 3.33 µM | 36.4 µM | 1570 nM | 9.44 µM | 5.42 µM | > 100 µM | 18000 nM | > 100 | 25100 nM | 92.9 µM | 4.08 µM | > 100 µM | 11 µM | > 100 µM | 10200 nM | > 100 µM |
| CCN(CC)c1nc(-c2ccc(Cl)cc2Cl)nc2ccccc12 | > 41.8 µM | > 67.7 | 17.1 µM | 57.2 µM | 43.9 µM | > 100 µM | 8680 nM | > 53.2 µM | 19.3 µM | 48.9 µM | 19500 nM | 48.8 | 702 nM | 7.63 µM | 30.8 µM | > 100 µM | 23 µM | > 71.1 µM | 13700 nM | 41.3 µM |
| N=c1ccn2c(n1)OC1C(O)C(CO)OC12 (stereo not drawn) | > 100 µM | > 1000 | 0.337 µM | > 1000 µM | > 100 µM | > 1000 µM | 2600 nM | > 231 µM | – | > 1000 µM | 2280 nM | > 1000 | 66300 nM | > 1000 µM | 81.4 µM | > 1000 µM | 0.659 µM | > 753 µM | 1550 nM | 212 µM and > 100 µM |
| Oc1cc(O)c2c(c1)OC(c1ccc(O)c(O)c1)C(OC1(c3cc(O)c(O)c(O)c3)Oc3cc(O)cc(O)c3C(O)C1O)C2 (stereo not drawn) | – | > 69.9 | – | > 71.7 µM | – | 60.8 µM | – | 84.7 µM | – | > 100 µM | – | > 85.9 | – | > 49.9 µM | – | 43.6 µM | – | 99.9 µM | – | > 100 µM |
| CC1(C)OCCn2c1nc1c(N3CCOCC3)nc(-c3cnc(N)nc3)nc12 | 0.372 µM | 3.79 | 0.283 µM | 4.4 µM | 0.0563 µM | 0.817 µM | 752 nM | > 83.6 µM | 0.241 µM | > 100 µM | 217 nM | 5.95 | 133 nM | 0.627 µM | 2.27 µM | > 100 µM | 0.508 µM | > 100 µM | 185 nM | 1.42 µM |
| Cc1nc2ccccc2nc1-c1ccc(N=[N+]([O-])c2ccc(-c3nc4ccccc4nc3C)cc2)cc1 | – | > 100 | – | > 100 µM | – | 46 µM | – | > 100 µM | – | > 100 µM | – | > 100 | – | > 89 µM | – | > 100 µM | – | > 100 µM | – | > 100 µM |
| CCCCCCNC(=O)c1nc(-c2ccccc2)oc1Cc1ccc(OP(=O)(O)O)cc1 | 19 µM | 37.1 | 18 µM | 36 µM | 13.1 µM | 29.2 µM | 21500 nM | 50.2 µM | 17.8 µM | 37.2 µM | 17000 nM | 31.2 | 12500 nM | 25.1 µM | 22.6 µM | 64 µM | 20.3 µM | 42 µM | 14000 nM | 27.9 µM |
